{"source": "patent US20220023323A1", "about": "“RESETTING BIOLOGICAL PATHWAYS FOR DEFENDING AGAINST AND REPAIRING DETERIORATION FROM HUMAN AGING” (priority 2015, published 2022)", "key": {"[1]": {"conditions": "no light and no contaminants in deionized/distilled H2O; cited from earlier work"}, "Sirt1": {"molecular_target": "Sirt1 (Homo sapiens, UniProt Q96EB6)", "sequence (Q96EB6 whole entry)": "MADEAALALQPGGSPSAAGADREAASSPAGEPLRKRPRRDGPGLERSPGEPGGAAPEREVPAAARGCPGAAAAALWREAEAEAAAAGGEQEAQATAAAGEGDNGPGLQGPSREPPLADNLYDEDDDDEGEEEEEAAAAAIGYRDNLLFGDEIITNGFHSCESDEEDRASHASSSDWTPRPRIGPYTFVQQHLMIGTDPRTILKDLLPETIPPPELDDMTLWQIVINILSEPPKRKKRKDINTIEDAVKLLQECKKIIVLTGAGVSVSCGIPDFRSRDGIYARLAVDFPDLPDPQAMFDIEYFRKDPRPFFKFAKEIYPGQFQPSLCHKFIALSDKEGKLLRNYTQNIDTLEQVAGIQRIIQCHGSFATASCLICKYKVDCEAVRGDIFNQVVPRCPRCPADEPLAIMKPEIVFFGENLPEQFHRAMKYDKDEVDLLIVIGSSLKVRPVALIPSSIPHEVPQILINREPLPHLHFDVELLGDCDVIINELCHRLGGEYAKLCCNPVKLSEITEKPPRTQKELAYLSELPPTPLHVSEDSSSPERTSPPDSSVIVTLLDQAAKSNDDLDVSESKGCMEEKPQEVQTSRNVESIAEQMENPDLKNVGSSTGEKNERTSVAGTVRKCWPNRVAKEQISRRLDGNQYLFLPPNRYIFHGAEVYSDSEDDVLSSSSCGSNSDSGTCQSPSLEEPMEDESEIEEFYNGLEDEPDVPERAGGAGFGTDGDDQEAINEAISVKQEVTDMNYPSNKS", "conditions": "cited from earlier work"}, "[2]": {"conditions": "estimated; cited from earlier work"}, "[3]": {"conditions": "cited from earlier work"}, "[4]": {"conditions": "cited from earlier work", "remark": "listed apart in the source"}, "[5]": {"conditions": "cited from earlier work", "remark": "listed apart in the source"}, "PARP-1": {"molecular_target": "PARP-1 (Homo sapiens, UniProt P09874)", "sequence (P09874 whole entry)": "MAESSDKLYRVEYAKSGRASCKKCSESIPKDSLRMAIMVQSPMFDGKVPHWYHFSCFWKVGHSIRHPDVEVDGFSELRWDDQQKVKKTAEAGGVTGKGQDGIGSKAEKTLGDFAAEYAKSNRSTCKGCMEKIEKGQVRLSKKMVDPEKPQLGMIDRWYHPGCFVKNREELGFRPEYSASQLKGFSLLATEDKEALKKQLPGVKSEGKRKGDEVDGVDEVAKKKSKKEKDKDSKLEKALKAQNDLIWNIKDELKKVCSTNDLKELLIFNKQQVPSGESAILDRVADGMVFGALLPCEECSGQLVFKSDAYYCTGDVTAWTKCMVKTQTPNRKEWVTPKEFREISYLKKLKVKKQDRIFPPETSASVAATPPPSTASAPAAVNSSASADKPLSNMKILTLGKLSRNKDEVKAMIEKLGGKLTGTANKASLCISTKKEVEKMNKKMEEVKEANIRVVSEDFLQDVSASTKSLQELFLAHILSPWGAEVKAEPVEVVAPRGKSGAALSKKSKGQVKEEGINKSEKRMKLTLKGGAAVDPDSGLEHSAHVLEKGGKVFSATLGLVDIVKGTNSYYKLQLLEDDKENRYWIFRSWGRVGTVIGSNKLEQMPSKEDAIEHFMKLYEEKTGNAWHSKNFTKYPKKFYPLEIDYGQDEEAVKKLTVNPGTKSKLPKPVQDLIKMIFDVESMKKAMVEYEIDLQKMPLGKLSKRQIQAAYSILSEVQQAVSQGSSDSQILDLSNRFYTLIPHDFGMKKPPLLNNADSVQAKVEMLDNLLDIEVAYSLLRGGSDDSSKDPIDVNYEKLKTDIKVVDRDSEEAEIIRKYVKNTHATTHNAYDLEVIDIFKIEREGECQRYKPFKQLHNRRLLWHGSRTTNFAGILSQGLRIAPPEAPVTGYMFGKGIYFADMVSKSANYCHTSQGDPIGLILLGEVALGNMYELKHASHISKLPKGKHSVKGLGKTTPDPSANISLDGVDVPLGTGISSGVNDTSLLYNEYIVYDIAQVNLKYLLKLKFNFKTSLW", "conditions": "cited from earlier work"}, "Sirtuins": {"tested_on": "Sirtuins", "conditions": "most Sirtuins; cited from earlier work"}, "Interleukin-6": {"tested_on": "Interleukin-6", "experiment": "LabCor monthly serum marker testing: Interleukin-6", "assay_type": "in vivo, human", "conditions": "person, oral twice daily, study month 3: NMN alone, 3rd month, baseline 1.3", "protocol": "(§1) A person weighing 88 kg at the beginning of the treatment was treated with a regimine of category 1, category 2, and category 3 molecules as noted below.\n(§2) The amounts of each composition were set so that by the subject drinking the full 500 mL a final dosage approximately 1.19×10^−4 moles NMN/kg body weight per dose, 2.91×10^−4 moles betaine/kg body weight per dose, 1.17×10^−5 moles of H2O2/kg of body weight per dose, and 1.51×10^−6 moles cf NaSH/kg of body weight per dose was given to the subject through drinking the 500 mL solution.\n(§3) By taking two similar dosages per day, the sum of the two daily equal allotments was • Nicotinamide Mononucleotide (NMN) dosage−2.38×10^−4 moles/Kg body weight/day • The betaine dosage−5.82×10^−4 moles/Kg body weight/day • The Hydrogen Peroxide (H2O2) dosage−2.34×10^−5 moles/Kg body weight/day • The Sodium Hydrogen Sulfide (NaSH) dosage−3.02×10^−6 moles/Kg body weight/day\n(§4) The subject self-administered the formulations orally through drinking the solution at approximately 7AM and 7 PM each day. These times were chosen because they approximated the subjects' biological clock peaks of NAD+ as determined by Ramsey K 2009. This had the effect of pulsing the ingredients into the body twice a day. approximately timed with the biological clock of the subject.\nLabCor Inc. performed the marker testing using standard protocols on a monthly basis. […]"}, "CD38": {"molecular_target": "T1, CD38 (Homo sapiens, UniProt P28907)", "T1 sequence (P28907 1-300)": "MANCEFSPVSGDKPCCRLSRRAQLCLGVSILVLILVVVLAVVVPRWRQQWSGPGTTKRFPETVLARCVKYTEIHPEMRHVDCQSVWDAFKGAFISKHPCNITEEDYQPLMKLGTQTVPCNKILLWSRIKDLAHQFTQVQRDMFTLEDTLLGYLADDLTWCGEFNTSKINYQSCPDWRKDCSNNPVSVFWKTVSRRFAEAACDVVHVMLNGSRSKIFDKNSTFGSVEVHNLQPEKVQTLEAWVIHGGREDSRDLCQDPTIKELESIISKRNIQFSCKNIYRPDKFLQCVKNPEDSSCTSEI", "conditions": "CD38 substrate; cited from earlier work"}, "Inflammation Score": {"tested_on": "Inflammation Score", "experiment": "Inflammation Score (sum of the markers) and aging prediction after Arai 2015", "assay_type": "in vivo, human", "conditions": "person, baseline 5.17", "source_text": "Inflammation markers can be analyzed for aging including those markers found in the study by Arai in 2015. Aria found inflammation markers that were predictive of who would continue to live (life-span) and who would be physically and cognitively healthy (health-span). The markers used were CMV IgG, IL-6, TNF-alpha and CRP.\n(§5) LabCor Inc. performed the marker testing using standard protocols on a monthly basis. Blood draw times ranged between 8:19 am and 8:54 am. Inflammatory measurements are correlated to the biological clock. LabCor tested levels of CMV IgG, C-Reactive Protein, Tumor Necrosis Factor-Alpha, and Interleukin-6 in Serum.\nIn the baseline condition for the subject, both C-reactive Protein (2.77 mg/L) and Interleukin-6 (1.3 pg/m14 measurements were above the “unrelated family” level (0.7 mg/l and 1.13 pg/mL) (Arai Y 2015, Table 1) as well as the “offspring” level (0.7 mg/l and 1.03 pg/mL) (Arai Y. 2015, Table 1) respectively. The […] subject of this study has a similar age to the “offspring” group and the “unrelated family” group of Arai. These two inflammation test scores effect the prediction algorithm to predict a worse aging outcome for the subject than the “offspring” or “unrelated family” groups of Arai at baseline."}, "[6]": {"tested_on": "Tumor Necrosis Factor-Alpha", "experiment": "LabCor monthly serum marker testing: Tumor Necrosis Factor-Alpha", "assay_type": "in vivo, human", "conditions": "person, oral twice daily, baseline 1.1", "protocol": "The amounts of each composition were set so that by the […] given to the subject through drinking the 500 mL solution. […]\nas §4, §5"}, "[7]": {"conditions": "NMN given to mice; cited from earlier work"}, "CMV IgG": {"tested_on": "CMV IgG", "experiment": "LabCor monthly serum marker testing: CMV IgG", "assay_type": "in vivo, human", "conditions": "person, oral twice daily", "protocol": "as §1\nTypical final concentrations of NMN taken by subject were 3.5 grams in 500 mL H2O, betaine were 3 grams in 500 mL H2O, H2O2 were (2 drops of 35% concentration in 500 mL H2O), and NaSH were (drops of 2 at 66 uM per drop concentration in 500 mL H2O).\nas §2, §3, §4, §5"}, "C-Reactive Protein": {"tested_on": "C-Reactive Protein", "experiment": "LabCor monthly serum marker testing: C-Reactive Protein", "assay_type": "in vivo, human", "conditions": "for C-Reactive Protein: serum, person, oral twice daily, baseline 2.77", "protocol": "The amounts of each composition were set so that by the subject drinking the full 500 mL a final dosage approximately 1.19×10^−4 moles NMN/kg body weight per dose, […] through drinking the 500 mL solution. […]\nas §4, §5"}, "[8]": {"conditions": "study month 1: NMN alone, 1st month"}, "[9]": {"conditions": "study month 2: NMN alone, 2nd month"}, "[10]": {"conditions": "study month 3: NMN alone, 3rd month"}}, "data": [{"smiles": "OO", "note": "[H2O2, hydrogen peroxide]", "values": [{"measurement": "degradation rate", "setting": "[1]", "result": "about 10 %/year"}, {"measurement": "extracellular H2O2 inhibition of Sirt1", "setting": "Sirt1; extracellular H2O2", "result": 1, "unit": "µmol"}, {"measurement": "extracellular concentration that inhibits Sirt1", "setting": "Sirt1; oxidizing critical cysteine residues in the Sirtuin active center", "result": 1, "unit": "µM"}, {"measurement": "fraction absorbed by the gut", "setting": "[2]", "result": "~50", "unit": "%"}]}, {"smiles": "C[S+](CC[C@H](N)C(=O)O)C[C@H]1O[C@@H](n2cnc3c(N)ncnc32)[C@H](O)[C@@H]1O", "note": "(stereo partly drawn) [SAM, S-5′-adenosyl-L-methionine]", "values": [{"measurement": "fraction that gets into the body when ingested", "setting": "[3]", "result": "about 2%"}]}, {"smiles": "NC(=O)c1ccc[n+]([C@@H]2O[C@H](CO)[C@@H](O)[C@H]2O)c1", "note": "[NR, nicotinamide riboside]", "values": [{"measurement": "reaching muscle", "setting": "[4]; orally delivered", "result": "largely not reach muscle"}]}, {"smiles": "S", "note": "[H2S, hydrogen sulfide]", "values": [{"measurement": "half-life", "setting": "[5]; under in vivo conditions", "result": "between seconds and minutes"}]}, {"smiles": "NC(=O)c1ccc[n+]([C@@H]2O[C@H](COP(=O)([O-])OP(=O)(O)OC[C@H]3O[C@@H](n4cnc5c(N)ncnc54)[C@H](O)[C@@H]3O)[C@@H](O)[C@H]2O)c1", "note": "[NAD+, nicotinamide adenine dinucleotide]", "values": [{"measurement": "Km", "setting": "PARP-1; PARP-1, substrate NAD+", "result": "20 to 60", "unit": "µM"}, {"measurement": "Km of PARP-1 lower than Sirtuin-1", "setting": "PARP-1; PARP-1 compared to Sirt1", "result": 5, "unit": "fold"}, {"measurement": "Km", "setting": "Sirtuins", "result": "100 to 300", "unit": "µM"}, {"measurement": "absorption through the digestive system", "setting": "[4]; in vivo", "result": "not absorbed well"}]}, {"smiles": "S", "note": "[NaHS, sodium hydrosulfide]", "values": [{"measurement": "time to increase of H2S concentration", "setting": "[5]; H2S donors", "result": "within seconds to minutes"}]}, {"smiles": "NC(=O)c1ccc[n+]([C@@H]2O[C@H](COP(=O)([O-])O)[C@@H](O)[C@H]2O)c1", "note": "[NMN, Nicotinamide mononucleotide]", "values": [{"measurement": "Interleukin-6 Serum", "setting": "Interleukin-6", "result": 0.9, "unit": "pg/mL"}, {"measurement": "kcat relative to that of NAD+", "setting": "CD38", "result": 5, "unit": "fold"}, {"measurement": "Inflammation Score", "setting": "Inflammation Score; [8]", "result": 8.55}, {"measurement": "Inflammation Score", "setting": "Inflammation Score; [9]", "result": 2.23}, {"measurement": "Inflammation Score", "setting": "Inflammation Score; [10]", "result": 2.53}, {"measurement": "Tumor Necrosis Factor-Alpha", "setting": "[6]; [8]", "result": 0.9, "unit": "pg/mL"}, {"measurement": "Tumor Necrosis Factor-Alpha", "setting": "[6]; [9]", "result": 1.1, "unit": "pg/mL"}, {"measurement": "Tumor Necrosis Factor-Alpha", "setting": "[6]; [10]", "result": 1.1, "unit": "pg/mL"}, {"measurement": "time to create NAD+ out of the NMN", "setting": "[7]", "result": 15, "unit": "min"}, {"measurement": "CMV IgG", "setting": "CMV IgG; [8]", "result": 0}, {"measurement": "CMV IgG", "setting": "CMV IgG; [9]", "result": 0}, {"measurement": "CMV IgG", "setting": "CMV IgG; [10]", "result": 0}, {"measurement": "CRP", "setting": "C-Reactive Protein; after two months of treatment with NMN, subject", "result": 0.43, "unit": "mg/L"}, {"measurement": "C-Reactive Protein", "setting": "C-Reactive Protein; [9]", "result": 0.43, "unit": "mg/L"}, {"measurement": "C-Reactive Protein", "setting": "C-Reactive Protein; [10]", "result": 0.53, "unit": "mg/L"}]}]}
